# Measurements reported in patent US12502379B2, “Ponesimod for avoiding worsening of fatigue-related symptoms in multiple sclerosis patients” (Vanda Pharmaceuticals Inc., priority 2019, dated 2025).
# What was measured:
# [1] = Treatment-emergent adverse events, Safety Set
# Description: A prospective, multicenter, randomized, double-blind, active controlled, parallel-group, phase III, superiority study was conducted.
# The Safety Set (SAF) included all randomized subjects who received at least one dose of study treatment. Subjects were analyzed based on actual treatment taken, not randomized treatment.
# [2] = test system: adult subjects with relapsing MS; assay: FSIQ-RMS weekly symptoms score, change from baseline to Week 108; assay type: in vivo, human; settings: FSIQ-RMS weekly symptoms score
# Source text: In some embodiments, the patient-reported outcome questionnaire is the Fatigue Symptoms and Impact Questionnaire—Relapsing Multiple Sclerosis (FSIQ-RMS) (available from Mapi Research Trust). The FSIQ-RMS is an MS specific 20-item PRO measure that comprises 2 domains: one measuring MS symptoms and one measuring MS-related impacts. See Hudgens S, et al., Development and Validation of the FSIQ-RMS: A New Patient-Reported Questionnaire to Assess Symptoms and Impacts of Fatigue in Relapsing Multiple Sclerosis. Value Health. 2019 April; 22 (4): 453-466. doi: 10.1016/j.jval.2018.11.007. Epub 2019 Feb. 21. PubMed PMID: 30975397. With 7 symptom items and 13 impact items (in 3 impacts subdomains: physical, cognitive and emotional, and coping), the FSIQ-RMS is a comprehensive, valid, and reliable measure of fatigue-related symptoms and impacts in RMS patients. FIG. 2B depicts a conceptual framework for the FSIQ-RMS.
# (§1) In some embodiments, the patient-reported outcome questionnaire is the symptom domain of the FSIQ-RMS. The FSIQ-RMS symptom domain (FSIQ-RMS-S) consists of seven items assessing fatigue-related symptoms with a recall period of 24 hours measured on an 11-point numeric rating scale; the standardized symptom domain score ranges from 0 to 100 with a higher score indicating greater fatigue. This domain (i.e., section 1 of the questionnaire) is completed on 7 consecutive days.
# The patient-reported outcome questionnaire used for the below Examples is the Fatigue Symptoms and Impact Questionnaire-Relapsing Multiple Sclerosis (FSIQ-RMS). The FSIQ-RMS is an MS specific 20-item PRO measure that comprises 2 domains: one measuring MS symptoms (7 items) and one measuring MS-related impacts (13 items). The 7 symptom items and 13 impact items (in 3 impacts subdomains: physical, cognitive and emotional, and coping) are presented below.
# For the MS symptoms domain, the FSIQ-RMS asks about a patient's fatigue-related symptoms of relapsing MS over the past 24 hours while doing routine daily activities (e.g., housework, yard work, shopping, working, etc.) for Items 1-6 or while at rest (e.g., reading a book, watching TV, etc.) for Item 7. Patients are asked to select a response on a scale of Oto 10 that best describes their experience and are asked to not skip any questions, with no answers being right or wrong.
# Secondary efficacy variables and testing strategy: Four secondary efficacy endpoints were analyzed as per the statistical testing strategy outlined in FIG. 1. • Change from baseline to Week 108 in fatigue-related symptoms as measured by the symptoms domain of the FSIQ-RMS patient-reported outcome [Fatigue] • Cumulative number of combined unique active lesions from baseline to Week 108 on brain MRI [CUALs] • Time to first 12-week confirmed disability accumulation (CDA) from baseline to EOS on Expanded Disability Status Scale (EDSS) [12-week CDA] • Time to first 24-week CDA from baseline to EOS on EDSS [24-week CDA]
# as §1, with “The” for “In some embodiments, the patient-reported outcome questionnaire is the symptom domain of the FSIQ-RMS. The”
# FSIQ-RMS was completed during the pre-randomization period, at Visits 6, 7, 10, and 12 (Weeks 12, 24, 60, 84), 14 (EOT), and at unscheduled visits due to relapses (R1, R2, etc.) or other unscheduled visits (U1, U2, etc.) as described below. If applicable, FSIQ-RMS was performed at the corresponding visits in the PTOP.
# The completion of the FSIQ-RMS during the pre-randomization period was done as follows: At Visit 1 (Screening), subjects who appear eligible based on the assessments made during this visit (but prior to the results from the laboratory assessments are received) were provided with the electronic device containing the FSIQ-RMS. […]
# [3] = ALT increase relative to ULN; assay type: in vivo, human; settings: ponesimod 20 mg arm, teriflunomide 14 mg arm
# [4] = Reasons for premature treatment discontinuation; assay type: in vivo; settings: ponesimod 20 mg, teriflunomide 14 mg
# Description: A total of 1468 subjects were screened. Of those, 1133 subjects were randomized (567 to ponesimod 20 mg and 566 to teriflunomide 14 mg) across 162 sites in 28 countries, and 1131 subjects received at least one dose of study drug. The disposition of subjects is summarized in Table 1 and a summary of reasons (primary reason) for treatment discontinuation are shown in Table 2. Overall treatment and study discontinuation were balanced across both treatment arms. A total of 6.5% and 2.5% of the subjects discontinued due to AEs or tolerability related reasons in ponesimod 20 mg and teriflunomide 14 mg, respectively, while 1.9% and 4.3% discontinued due to efficacy related reasons. There were 2 deaths reported during the study—both on teriflunomide 14 mg.
# [5] = 12-lead ECG heart rate on Day 1, change from pre-dose; assay type: in vivo, human
# Description: As per up-titration regimen, the dose of ponesimod on Day 1 is 2 mg.
# [6] = other S1P receptor modulators, for comparison; cited from earlier work
# [7] = Day 1 (ponesimod dose 2 mg per up-titration), Safety Set, N = 565 / 566
# [8] = Safety Set, ponesimod 20 mg N = 565, teriflunomide 14 mg N = 566
# [9] = ponesimod 20 mg, teriflunomide 14 mg
# [10] = patients without Gd+T1 lesions at baseline
structure (smiles),measurement,setting,value
C/C(O)=C(\C#N)C(=O)Nc1ccc(C(F)(F)F)cc1 [Teriflunomide],AESI effect on heart rate and rhythm (including hypotension) on Day 1: Subjects with at least one AE,[1]; [7],0.4%
same,"AESI heart rate and rhythm on Day 1, PT: Atrioventricular block first degree",[1]; [7],0 n
same,"AESI heart rate and rhythm on Day 1, PT: Bradycardia",[1]; [7],0 n
same,"AESI heart rate and rhythm on Day 1, PT: Bundle branch block left",[1]; [7],0 n
same,"AESI heart rate and rhythm on Day 1, PT: Bundle branch block right",[1]; [7],0 n
same,"AESI heart rate and rhythm on Day 1, PT: Defect conduction intraventricular",[1]; [7],0 n
same,"AESI heart rate and rhythm on Day 1, PT: Sinus arrhythmia",[1]; [7],0 n
same,"AESI heart rate and rhythm on Day 1, PT: Sinus bradycardia",[1]; [7],0 n
same,Subject with at least one AE (treatment-emergent),[1]; [8],88.2%
same,Subject with at least one AE leading to study drug discontinuation,[1]; [8],6.0%
same,Subject with at least one Serious AE,[1]; [8],8.1%
same,"TEAEs leading to premature discontinuation of study drug, SOC: Eye disorders",[1]; [8],0 n
same,"TEAEs leading to premature discontinuation of study drug, SOC: Respiratory, thoracic and mediastinal disorders",[1]; [8],0 n
same,"TEAEs leading to premature discontinuation of study drug, SOC: Vascular disorders",[1]; [8],0 n
same,Treatment-emergent AESI: Hepatobiliary disorders/Liver enzyme abnormality,[1]; [8],14.5%
same,Treatment-emergent AESI: Hypertension,[1]; [8],9.0%
same,Treatment-emergent AESI: Pulmonary events,[1]; [8],2.7%
same,TEAE: ALT increased,[1]; [9],9.4%
same,TEAE: headache,[1]; [9],12.7%
same,TEAE: nasopharyngitis,[1]; [9],16.8%
same,TEAE: upper respiratory tract infection,[1]; [9],10.4%
same,Change From Baseline to Week 108: Stable or Improved,[2]; patients with baseline fatigue below the median,about 55%
same,Change From Baseline to Week 108: Stable or Improved,[2]; [10],57.0%
same,Change From Baseline to Week 108: Worsened (≥6.3),[2]; [10],43.0%
same,Change From Baseline to Week 108: Stable or Improved,"[2]; patients without Gd+T1 lesions at baseline, listed as teriflunomide",about 57%
same,Proportion of subjects who experienced ALT increase >3×ULN,[3],8.3%
same,Proportion of subjects who experienced ALT increase >8×ULN,[3],2.1%
same,Subjects who discontinued due to AEs or tolerability related reasons,[4],2.5%
same,Mean heart rate reduction compared to pre-dose (maximum),"[5]; Day 1, 2-hours post dose, ponesimod arm dose on Day 1 is 2 mg",−1.7 bpm
same,Subjects with asymptomatic post-dose HR≤40 bpm,"[5]; Day 1, all had pre-treatment HR<55 bpm",none
CCCCCCCCc1ccc(CCC(N)(CO)CO)cc1 [fingolimod],ECG HR effect: nadir post-dose,[6],~6 h
CCc1cc(/C(C)=N/OCc2ccc(C3CCCCC3)c(C(F)(F)F)c2)ccc1CN1CC(C(=O)O)C1 [siponimod],ECG HR effect: nadir post-dose,[6],3 to 4 h
